The experiment has as its target CX3CR1 (Homo sapiens (Human), UniProt P49238). As to the kind of experiment: hCX3CR1 [3H]-AZD8797 competitive binding assay (filter). The settings on record: CHO-hCX3CR1 membranes, 2 nM [3H]-AZD8797. As to the method: hCX3CR1 [^3H]-AZD8797 Competitive Binding Assay (Filter)
CHO-hCX3CR1 membranes (9 μg per well) together with 2 nM [^3H]-AZD8797 and different concentrations of competitor compound were incubated in 25 mM HEPES (pH 7.4), 10 mM MgCl2, 1 mM CaCl2) and 0.5% BSA in a Corning polystyrene flat-bottom 96-well plate. The plate was incubated for 2 h at room temperature before free radioligand was separated from bound by vacuum filtration on to a Multiscreen HTS+HiFlow FB (Millipore) filter plate, using a Biomek FX (Beckman Coulter). The filter plate was washed in ice-cold 25 mM HEPES (pH 7.4), 5 mM MgCl2, 1 mM CaCl2) and 500 mM NaCl and dried at 50° C. for 1 h. Scintillation cocktail, Optiphase Supermix (PerkinElmer) was added to each well and the radioactivity was measured using a MicroBeta Trilux reader (PerkinElmer). The DMSO concentration was held constant at 1%.

Chain of CX3CR1 (P49238 whole entry): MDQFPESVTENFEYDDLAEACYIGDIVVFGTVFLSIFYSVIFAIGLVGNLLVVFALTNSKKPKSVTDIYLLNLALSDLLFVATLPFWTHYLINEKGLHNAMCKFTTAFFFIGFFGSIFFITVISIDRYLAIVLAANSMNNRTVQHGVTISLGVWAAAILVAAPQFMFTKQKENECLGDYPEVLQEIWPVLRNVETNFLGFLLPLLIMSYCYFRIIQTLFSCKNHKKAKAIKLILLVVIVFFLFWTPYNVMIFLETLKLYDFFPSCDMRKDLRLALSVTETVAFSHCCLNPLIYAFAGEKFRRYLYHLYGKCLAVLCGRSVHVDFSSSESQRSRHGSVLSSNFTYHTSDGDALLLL

In the case of `CC(C)C[C@H](CO)Nc1nc(C[C@H](C)c2ccc(F)c(F)c2F)nc(NS(C)(=O)=O)n1` (relative stereo) [Example 87, N-(4-(((R)-1-Hydroxy-4-methylpentan-2-yl)amino)-6-((S*)-2-(2,3,4-trifluorophenyl)propyl)-1,3,5-triazin-2-yl)methanesulfonamide], the IC50 (commonly the concentration that inhibits the measured activity by half) stood at 0.186 µM. To `COc1cc(C)c([C@@H](C)Cc2nc(N[C@@H](CO)CC(C)C)nc(NS(C)(=O)=O)n2)cn1` (single isomer, unassigned) [Example 14, N-(4-(((R)-1-Hydroxy-4-methylpentan-2-yl)amino)-6-((S*)-2-(6-methoxy-4-methylpyridin-3-yl)propyl)-1,3,5-triazin-2-yl)methanesulfonamide] belongs above 10 µM; to `COc1ccc([C@H](C)Cc2nc(N[C@@H](CO)CC(C)C)nc(NS(C)(=O)=O)n2)cc1F` (single isomer, unassigned) [Example 19, N-(4-((R*)-2-(3-Fluoro-4-methoxyphenyl)propyl)-6-(((R)-1-hydroxy-4-methylpentan-2-yl)amino)-1,3,5-triazin-2-yl)methanesulfonamide], 0.033 µM; to `COc1ccc([C@@H](C)Cc2nc(N[C@@H](CO)CC(C)C)nc(NS(C)(=O)=O)n2)cc1F` (single isomer, unassigned) [Example 20, N-(4-((S*)-2-(3-Fluoro-4-methoxyphenyl)propyl)-6-(((R)-1-hydroxy-4-methylpentan-2-yl)amino)-1,3,5-triazin-2-yl)methanesulfonamide], 0.958 µM. In the case of `CC(C)C[C@H](CO)Nc1nc(C[C@H](C)c2cc(F)c(F)c(F)c2)nc(NS(C)(=O)=O)n1` (single isomer, unassigned) [Example 21, N-(4-(((R)-1-Hydroxy-4-methylpentan-2-yl)amino)-6-((S*)-2-(3,4,5-trifluorophenyl)propyl)-1,3,5-triazin-2-yl)methanesulfonamide], the IC50 came out at 6.41 µM.

As to `CC(C)C[C@H](CO)Nc1nc(C[C@@H](C)c2cc(F)c(F)c(F)c2)nc(NS(C)(=O)=O)n1` (single isomer, unassigned) [Example 22, N-(4-(((R)-1-Hydroxy-4-methylpentan-2-yl)amino)-6-((R*)-2-(3,4,5-trifluorophenyl)propyl)-1,3,5-triazin-2-yl)methanesulfonamide], the IC50 stood at 0.257 µM. The compound `CC(C)C[C@H](CO)Nc1nc(C[C@H](C)c2cc(F)ccc2F)nc(NS(C)(=O)=O)n1` (single isomer, unassigned) [Example 23, N-(4-((S*)-2-(2,5-Difluorophenyl)propyl)-6-(((R)-1-hydroxy-4-methylpentan-2-yl)amino)-1,3,5-triazin-2-yl)methanesulfonamide] came in with an IC50 of 0.548 µM. To `CC(C)C[C@H](CO)Nc1nc(C[C@@H](C)c2cc(F)ccc2F)nc(NS(C)(=O)=O)n1` (single isomer, unassigned) [Example 24, N-(4-((R*)-2-(2,5-Difluorophenyl)propyl)-6-(((R)-1-hydroxy-4-methylpentan-2-yl)amino)-1,3,5-triazin-2-yl)methanesulfonamide] belongs 0.078 µM; to `CCOc1ccc([C@H](C)Cc2nc(N[C@@H](CO)CC(C)C)nc(NS(C)(=O)=O)n2)cn1` (single isomer, unassigned) [Example 27, N-(4-((R*)-2-(6-Ethoxypyridin-3-yl)propyl)-6-(((R)-1-hydroxy-4-methylpentan-2-yl)amino)-1,3,5-triazin-2-yl)methanesulfonamide], 0.138 µM. To `CCOc1ccc([C@@H](C)Cc2nc(N[C@@H](CO)CC(C)C)nc(NS(C)(=O)=O)n2)cn1` (single isomer, unassigned) [Example 28, N-(4-((S*)-2-(6-Ethoxypyridin-3-yl)propyl)-6-(((R)-1-hydroxy-4-methylpentan-2-yl)amino)-1,3,5-triazin-2-yl)methanesulfonamide] belongs 2.78 µM; to `CC(C)C[C@H](CO)Nc1nc(C[C@H](C)c2cc(Cl)ccc2F)nc(NS(C)(=O)=O)n1` (single isomer, unassigned) [Example 29, N-(4-((S*)-2-(5-Chloro-2-fluorophenyl)propyl)-6-(((R)-1-hydroxy-4-methylpentan-2-yl)amino)-1,3,5-triazin-2-yl)methanesulfonamide], 0.794 µM; to `CC(C)C[C@H](CO)Nc1nc(C[C@@H](C)c2cc(Cl)ccc2F)nc(NS(C)(=O)=O)n1` (single isomer, unassigned) [Example 30, N-(4-((R*)-2-(5-Chloro-2-fluorophenyl)propyl)-6-(((R)-1-hydroxy-4-methylpentan-2-yl)amino)-1,3,5-triazin-2-yl)methanesulfonamide], 0.148 µM.

Regarding `CC(C)C[C@H](CO)Nc1nc(C[C@@H](C)c2cc(F)c(Cl)c(F)c2)nc(NS(C)(=O)=O)n1` (single isomer, unassigned) [Example 31, N-(4-((R*)-2-(4-Chloro-3,5-difluorophenyl)propyl)-6-(((R)-1-hydroxy-4-methylpentan-2-yl)amino)-1,3,5-triazin-2-yl)methanesulfonamide], the IC50 turned out to be 0.287 µM. For the compound `CC(C)C[C@H](CO)Nc1nc(C[C@H](C)c2cc(F)c(Cl)c(F)c2)nc(NS(C)(=O)=O)n1` (single isomer, unassigned) [Example 32, N-(4-((S*)-2-(4-Chloro-3,5-difluorophenyl)propyl)-6-(((R)-1-hydroxy-4-methylpentan-2-yl)amino)-1,3,5-triazin-2-yl)methanesulfonamide], the IC50 came out at 7.56 µM. With `CC(C)C[C@H](CO)Nc1nc(C[C@H](C)c2ccc(Cl)c(F)c2F)nc(NS(C)(=O)=O)n1` (single isomer, unassigned) [Example 33, N-(4-((S*)-2-(4-Chloro-2,3-difluorophenyl)propyl)-6-(((R)-1-hydroxy-4-methylpentan-2-yl)amino)-1,3,5-triazin-2-yl)methanesulfonamide], the IC50 turned out to be 0.384 µM. Turning to `CC(C)C[C@H](CO)Nc1nc(C[C@@H](C)c2ccc(Cl)c(F)c2F)nc(NS(C)(=O)=O)n1` (single isomer, unassigned) [Example 34, N-(4-((R*)-2-(4-Chloro-2,3-difluorophenyl)propyl)-6-(((R)-1-hydroxy-4-methylpentan-2-yl)amino)-1,3,5-triazin-2-yl)methanesulfonamide], the IC50 was found to be 0.052 µM.

`CC(C)C[C@H](CO)Nc1nc(C[C@H](C)c2cc(F)c(F)cc2F)nc(NS(C)(=O)=O)n1` (single isomer, unassigned) [Example 35, N-(4-(((R)-1-Hydroxy-4-methylpentan-2-yl)amino)-6-((S*)-2-(2,4,5-trifluorophenyl)propyl)-1,3,5-triazin-2-yl)methanesulfonamide] displayed a 50% inhibitory concentration (IC50) of 2.53 µM. In the case of `CC(C)C[C@H](CO)Nc1nc(C[C@@H](C)c2cc(F)c(F)cc2F)nc(NS(C)(=O)=O)n1` (single isomer, unassigned) [Example 36, N-(4-(((R)-1-Hydroxy-4-methylpentan-2-yl)amino)-6-((R*)-2-(2,4,5-trifluorophenyl)propyl)-1,3,5-triazin-2-yl)methanesulfonamide] it was 0.504 µM; in that of `CC(C)C[C@H](CO)Nc1nc(C[C@H](C)c2cc(F)c(Cl)cc2F)nc(NS(C)(=O)=O)n1` (single isomer, unassigned) [Example 37, N-(4-((S*)-2-(4-Chloro-2,5-difluorophenyl)propyl)-6-(((R)-1-hydroxy-4-methylpentan-2-yl)amino)-1,3,5-triazin-2-yl)methanesulfonamide], 1.93 µM; in that of `CC(C)C[C@H](CO)Nc1nc(C[C@@H](C)c2cc(F)c(Cl)cc2F)nc(NS(C)(=O)=O)n1` (single isomer, unassigned) [Example 38, N-(4-((R*)-2-(4-Chloro-2,5-difluorophenyl)propyl)-6-(((R)-1-hydroxy-4-methylpentan-2-yl)amino)-1,3,5-triazin-2-yl)methanesulfonamide], 0.685 µM. On to `CC(C)C[C@H](CO)Nc1nc(C[C@H](C)c2c(F)cc(F)cc2F)nc(NS(C)(=O)=O)n1` (single isomer, unassigned) [Example 39, N-(4-(((R)-1-Hydroxy-4-methylpentan-2-yl)amino)-6-((S*)-2-(2,4,6-trifluorophenyl)propyl)-1,3,5-triazin-2-yl)methanesulfonamide], for which the IC50 was above 10 µM. For `CC(C)C[C@H](CO)Nc1nc(C[C@@H](C)c2c(F)cc(F)cc2F)nc(NS(C)(=O)=O)n1` (single isomer, unassigned) [Example 40, N-(4-(((R)-1-Hydroxy-4-methylpentan-2-yl)amino)-6-((R*)-2-(2,4,6-trifluorophenyl)propyl)-1,3,5-triazin-2-yl)methanesulfonamide], the IC50 was determined as 0.065 µM.

Turning to `CC(C)C[C@H](CO)Nc1nc(C[C@H](C)c2c(F)ccc(F)c2F)nc(NS(C)(=O)=O)n1` (single isomer, unassigned) [Example 41, N-(4-(((R)-1-Hydroxy-4-methylpentan-2-yl)amino)-6-((S*)-2-(2,3,6-trifluorophenyl)propyl)-1,3,5-triazin-2-yl)methanesulfonamide], the IC50 is above 10 µM.

As for `CC(C)C[C@H](CO)Nc1nc(C[C@@H](C)c2c(F)ccc(F)c2F)nc(NS(C)(=O)=O)n1` (single isomer, unassigned) [Example 42, N-(4-(((R)-1-Hydroxy-4-methylpentan-2-yl)amino)-6-((R*)-2-(2,3,6-trifluorophenyl)propyl)-1,3,5-triazin-2-yl)methanesulfonamide], the IC50 came out at 0.03 µM.
